Each structure is given as a SMILES string.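 Tested at 5 concentrations; 48 h exposure; 96-well plates; endpoints linearly interpolated, else capped at highest concentration. The concentration for 50% growth inhibition is given as GI50. TGI: concentration producing complete growth inhibition.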

Holding throughout (experiment): growth of human tumour cells (NCI), 48 h
For assay [1], the system named is ACHN renal.
Assay [2] deals with CCRF-CEM leukemia.
For assay [3], the system named is MDA-N.
In assay [4] the test system is SF-268 CNS.
For assay [5], the system named is SK-MEL-5 melanoma.
For assay [6], the system named is SNB-75 CNS.
Assay [7] relates to SW-620 colon.
Assay [8] relates to U251 CNS.
In assay [9] the test system is K-562 leukemia.

With `CCN(CC)CCCC(C)Nc1ccnc(/C=C/c2ccc(Cl)cc2)c1` (stereo unspecified), the TGI in [1] is 8.68 µM; in assay [2] it was more than 19.7 µM; in assay [3], 3.62 µM; in [4], 8.6 µM; in assay [5], 6.17 µM; in [6] it was 4.5 µM. Also, the TGI in [7] was determined as 3.91 µM; in assay [8] it was 3.12 µM.
With `CC(=N\O)/C(C)=N/O.CC(=N\O)/C(C)=N/O.[Fe].[NH2-].c1c[nH]cn1`, the GI50 in assay [1], in [9], in [3], in [4], in [5] and in [6] was more than 100 µM throughout. Besides, the GI50 in assay [7] and in [8] was more than 100 µM throughout. In addition, the TGI in [1], in assay [9], in assay [3], in assay [4], in assay [5] and in assay [6] was more than 100 µM throughout. The TGI in assay [7] and in assay [8] was more than 100 µM throughout.
For `O=C(CC1Sc2ccccc2NC1=O)NNc1ccc(F)cc1` (stereo unspecified), the GI50 is 7.07 µM in assay [1]; more than 100 µM in assay [2]; 4.67 µM in assay [9]; 81 µM in assay [4]; 46.1 µM in assay [5]; 14.9 µM in [6]. For the same compound, the GI50 in assay [7] is 38.5 µM; in assay [8] it was more than 100 µM. Moreover, the TGI in assay [1], in assay [2], in [9], in [4], in assay [5] and in assay [6] was more than 100 µM in each case. The TGI in assay [7] and in [8] was more than 100 µM throughout.
As for `C=C1C(=O)O[C@H]2[C@H]1CC/C(COC(=O)N[C@H](Cc1c[nH]c3ccccc13)C(=O)OC)=C\CC[C@@]1(C)O[C@@H]21`, the GI50 in [1] is 1.78 µM; in [2], 1.78 µM; in [9], 1.72 µM; in [4], 5.17 µM; in [5], 7.03 µM; in assay [6], 8.35 µM. Besides, the GI50 in [7] was 1.78 µM; in assay [8] it was 10 µM. Moreover, the TGI in assay [1] stood at 4.22 µM; in assay [2], 6.69 µM; in assay [9], 8.29 µM; in assay [4] it was 19.8 µM; in [5] it was 20.5 µM; in assay [6], 22.5 µM. Also, the TGI in assay [7] came to 4.17 µM; in assay [8] it was 22.1 µM.
`C=C1C(=O)O[C@H]2[C@H]1CC/C(COC(=O)/C=C\C(=O)NCc1ccc(Cn3c(=O)sn(-c4ccc(Cl)cc4)c3=O)cc1)=C\CC[C@@]1(C)O[C@@H]21`: the GI50 was 0.404 µM in [1]; 0.173 µM in [2]; 0.409 µM in assay [9]; 0.71 µM in [4]; 0.825 µM in [5]; 0.623 µM in [6]. Also, the GI50 was 0.242 µM in assay [7] and 0.713 µM in assay [8]. The TGI amounted to 1.03 µM in assay [1]; 6.65 µM in [2]; 50 µM in assay [9]; 1.43 µM in assay [4]; 1.52 µM in assay [5]; 1.31 µM in assay [6]. Moreover, the figures for the TGI in assay [7] and in [8] were 0.915 µM and 1.6 µM, respectively.
Regarding `CN(C)CCNC(=O)c1cccc2c1nc(-c1ccncc1)c1ccccc12`, the TGI was 10.6 µM in assay [1]; more than 100 µM in assay [2]; more than 100 µM in assay [9]; 19.7 µM in assay [4]; 6.8 µM in assay [5]; 15.8 µM in assay [6]. In addition, the TGI in [7] was determined as 19.1 µM; in assay [8], 17 µM.
As for `Nc1nc(N)c(-c2ccc(Cl)c(Cl)c2)c(CP(Cl)(Cl)(Cl)Br)n1`, the GI50 in assay [1] was 6.63 µM; in assay [2] it was 8.13 µM; in assay [9], 2.79 µM; in assay [4] it was 7.05 µM; in assay [5], 6.72 µM; in assay [6] it was 39.7 µM. For the same compound, the values for the GI50 in [7] and in [8] were 4.2 µM and 4.8 µM, respectively. Further, the TGI in assay [1] is more than 100 µM; in assay [2], more than 100 µM; in assay [9] it was more than 100 µM; in assay [4], more than 100 µM; in assay [5] it was 56.6 µM; in [6], more than 100 µM. The TGI in assay [7] and in assay [8] was more than 100 µM each time.
For `COc1ccc(C(Nc2ccccn2)c2cc(C(C)(C)C)cc(C(C)(C)C)c2O)cc1` (stereo unspecified), the TGI in assay [1] was more than 100 µM; in assay [9] it was more than 100 µM; in [3] it was more than 100 µM; in assay [4] it was more than 100 µM; in assay [5] it was 31.3 µM; in assay [6], 49.4 µM. Moreover, the TGI in assay [7] and in [8] was more than 100 µM in each case.
Turning to `C[C@@H](Oc1cc(-c2cnn(C3CCNCC3)c2)cnc1N)c1c(Cl)cc(F)cc1Cl`, the GI50 in [1] is 2.61 µM; in assay [2], 0.504 µM; in assay [9], 0.229 µM; in assay [4], 3.05 µM; in assay [5] it was 1.51 µM; in assay [6] it was 1.65 µM. The GI50 in [7] is 0.893 µM; in assay [8], 1.93 µM. Moreover, the TGI in assay [1] worked out at 12 µM; in assay [2] it was 9.88 µM; in [9], 3.88 µM; in [4], 12.1 µM; in assay [5], 2.89 µM; in assay [6], 4.38 µM. Also, the TGI was 8.13 µM in assay [7] and 7.65 µM in assay [8].
On to `Cc1ccc(NC2=CC(=O)C(=O)c3ccccc32)cc1`, for which the GI50 was 1.92 µM in assay [1]; 5.62 µM in assay [2]; 3.47 µM in [9]; 2.78 µM in assay [4]; 1.38 µM in assay [5]; 0.779 µM in assay [6]. The values for the GI50 in assay [7] and in assay [8] were 1.92 µM and 2.01 µM, respectively. Moreover, the TGI in assay [1] is 5.33 µM; in [2], more than 100 µM; in [9] it was more than 100 µM; in assay [4], 12.1 µM; in [5] it was 2.67 µM; in [6], 2.11 µM. The TGI in assay [7] was found to be 4.01 µM; in assay [8], 5.71 µM.

(Values after PubChem BioAssay (NCI).)
